Tested on: Jurkat T cells
Assay: Jurkat cell proliferation, tetrazolium dye
Assay type: cell-based, human
Settings: 48 hours
Protocol: The effect of various drugs on the proliferation of Jurkat T cells, MDA-468 human breast cancer cells and PC3 human prostate cancer cells was determined by incubating the cells with the indicated concentrations of drug for 48 hours. The number of viable cells remaining at the end of the incubation period was evaluated using the procedure outlined in Example 4.
Cells are plated in triplicate in a 96-well flat-bottomed plate (Jurkat: 5e4 cells/well in RPMI-1640 plus 5% fbs; MDA468: 2.5e4 per well in DMEM plus 5% fbs and 11 μg/ml insulin) in the absence (control) or presence of drug at 3, 10, 30, and 100 μM. An additional control of 100 μM drug in RPMI-1640 plus 5% fbs or DMEM plus 5% fbs and 11 μg/Ml insulin with no cells is included with each run to control for possible drug interactions with the dye. The plate is then placed in a 5% CO2 37° C. incubator for 44 to 48 hours. 20 μl of dye solution containing a tetrazolium dye (3-(4,5-dimethylthiazol-2-yl)-5-(3-carboxymethoxyphenyl)-2-(4-sulfophenyl)-2H-tetrazolium, Owen's reagent) plus coupling reagent (phenazine methosulfate) is added to each well, the plate is returned to the incubator, and the absorbance at 490 nm is read using an ELISA plate reader 3 to 4 h (Jurkat cells) or 2 to 3 h (MDA-468 cells) later. All data are presented as percent of control (no drug addition). With this protocol, it is possible to determine the effect of 5 drugs at 4 concentrations in a single 96-well plate as outlined below: […]

CC(Cc1ccc(O)c(O)c1)C(C)Cc1ccc(O)c(O)c1 (stereo not shown) [NDGA, 4,4′-(2,3-dimethyl-1,4-butanediyl)bis[1,2-benzenediol]]
T cell PROLIF: ↓
